From EP4647433A1, “SHP2 INHIBITOR AND USES THEREOF” (Kanaph Therapeutics Inc., priority 2023, dated 2024) come the findings set out here.

Molecules are shown by their SMILES. Bounds are passed on as bounds.

Broadly, the IC50 is the concentration that gives 50% inhibition.

Series [1] is described as follows: in vivo. Particulars: mouse, 20 mg/kg.
Protocol: (§1) Nine male CD-1 mice (ICR mouse) aged 6 to 9 weeks were treated with the compounds according to the Examples at a concentration of 20 mg/kg. 0.025 mL of blood and brain tissue were collected at 1 hour, 8 hours, and 24 hours post-treatment, respectively. The collected blood was placed in an EDTA-K2 tube, centrifuged at 4°C at 3,200 x g for 10 minutes, and the supernatant plasma was collected. The brain tissue samples were collected immediately after euthanizing the CD-1 mice after blood collection and performing cardiac perfusion with cold saline. After collection, the brain tissues were washed with cold saline, wiped and dried, weighed, and homogenized using a homogenization buffer (15 mM PBS (pH 7.4): MeOH = 2:1) at a ratio of 1:3 (1 g of tissue to 3 mL of buffer, dilution ratio 4). Plasma and homogenized brain tissue samples were each transferred to a polypropylene microcentrifuge tube and stored at -60°C or lower. The concentration of compounds distributed in plasma and brain tissue was analyzed using LC-MS/MS, and the distribution in brain tissue compared to plasma was calculated as follows. Brain-to-plasma ratio = AUC(0-t) brain tissue /AUC(0-t) plasma [formula]
(§2) In the Brain-plasma Pharmacokinetics assay, when a brain-to-plasma ratio value was 0.05 or more and less than 0.1, + was indicated, when a brain-to-plasma ratio value was 0.1 or more and less than 0.25, ++ was indicated, and when a brain-to-plasma ratio value was more than 0.25, +++ was indicated.
Series [2] deals with H358 cells. Put plainly: Cell viability (3D spheroid, 3D CellTiter-Glo). In kind it is cell-based. Conditions: Homo sapiens, NCI-H358, 120 h; H358 spheroids, 5 days treatment. In short, it runs like this:
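H358 human NSCLC cells (4 x 10^3/well) grown 72 h in RPMI-1640 with 10% FBS to form spheroids, then treated with serially diluted compounds (1.5 nM–10 µM) for 5 days. Viability read by 3D CellTiter-Glo luminescence after 25 min at room temperature; IC50 from concentration–response.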
A general note: ATP-based viability assays read luminescence as a measure of living cells.

The subject of series [3] is phospho-ERK. Put plainly: phospho-ERK assay (AlphaLisa) in H358 cells. The series is classed as cell-based. Particulars: Homo sapiens, NCI-H358, 1.5 hours incubation, read-out: pERK assay (IC50). As for the experimental part: H358 [20,000 cell/well] was contained in 40 µL of the cell culture solution (RPMI, 10% FBS, penicillin, streptomycin) and placed on a 384-well plate. After 24 hours, the serially diluted compound according to the Examples (concentration of minimum 0.13 nM, maximum 10 µM) was contained in 10 µL of the cell culture solution, put into wells containing cells, and incubated in a cell incubator for 1.5 hours. As a positive control group, the selective SHP2 inhibitor, TNO155 (Chemietek, US; concentration ranging from 0.13 nM to 10 µM) was used.
Thereafter, phospho-ERK was labeled using an AlphaLisa system from PerkinElmer according to the manufacturer's instructions, and then fluorescence (680 nm excitation wavelength, 615 nm emission wavelength) values were measured using a Varioskan equipment from Thermo. IC50 values were obtained using Graphad's Prism from the measured values depending on the concentration.
Intracellular SHP2 activity can be confirmed by measuring the degree of phosphorylation of ERK (extracellular signal regulated kinase), which represents Ras/Raf/ERK, a downstream signal pathway of SHP2. Inhibition of ERK phosphorylation by SHP2 inhibitors was confirmed through phospho-ERK analysis, which confirmed that the SHP2 inhibitors of the present disclosure have excellent activity in inhibiting ERK phosphorylation mediated by SHP2.
Background: In Alpha technology, singlet oxygen from a donor bead excites a nearby acceptor bead.

Series [4] deals with T1, SHP2 (Homo sapiens, UniProt Q06124).
T1 construct: SHP2 (full length, diluted to 100 pM final concentration in reaction buffer, BPS bioscience, US); purchased BPS bioscience, US
T1 sequence (Q06124 1-593): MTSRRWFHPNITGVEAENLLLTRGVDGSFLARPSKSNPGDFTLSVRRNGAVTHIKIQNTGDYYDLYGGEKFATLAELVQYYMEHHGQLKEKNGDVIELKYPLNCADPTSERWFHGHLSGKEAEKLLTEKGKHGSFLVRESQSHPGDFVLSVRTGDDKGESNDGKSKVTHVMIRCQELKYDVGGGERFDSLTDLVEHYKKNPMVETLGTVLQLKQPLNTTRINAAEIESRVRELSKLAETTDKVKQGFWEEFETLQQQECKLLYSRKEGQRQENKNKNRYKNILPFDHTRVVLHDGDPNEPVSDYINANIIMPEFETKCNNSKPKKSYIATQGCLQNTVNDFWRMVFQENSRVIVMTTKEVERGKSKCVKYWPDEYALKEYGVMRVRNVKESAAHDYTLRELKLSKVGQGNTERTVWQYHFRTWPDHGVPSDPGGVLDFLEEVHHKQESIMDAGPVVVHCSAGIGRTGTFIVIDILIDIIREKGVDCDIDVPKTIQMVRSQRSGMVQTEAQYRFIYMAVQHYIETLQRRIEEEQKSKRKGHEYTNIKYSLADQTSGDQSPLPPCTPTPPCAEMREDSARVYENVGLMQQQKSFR
As to the kind of experiment: Phosphatase assay (PTPase assay, DiFMUP substrate). Conditions: full length SHP2 100 pM activated with SHP2 activating peptide, DiFMUP 80 µM, 2 hours; read-out: PTPase assay (IC50). In kind it is biochemical. The gist of the method:
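Full-length SHP2 at 100 pM final was activated with SHP2 activating peptide for 30 min in HEPES buffer pH 7.2 with NaCl, KCl, EDTA, DTT and P-20, then compound (0.6 nM–10 µM) added. DiFMUP (80 µM) was reacted for 2 h in total; fluorescence read at 340/450 nm and IC50 fitted from concentration-response.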

Series [5] in a line: Brain-plasma Pharmacokinetics. Particulars: mouse, 20 mg/kg.
Protocol: as §1, §2

The molecule `COC(C)(C)Cn1cnc2ccc(Sc3cnc(N4CCC5(CC4)Oc4ccccc4[C@H]5N)cn3)c(Cl)c2c1=O` [Example 50, (R)-6-((5-(3-amino-3H-spiro[benzofuran-2,4'-piperidin]-1'-yl)pyrazin-2-yl)thio)-5-chloro-3-(2-methoxy-2-methylpropyl)quinazolin-4(3H)-one] yielded a Kp at 24 h in series [1] of over 0.25. The same molecule yielded an IC50 in series [2] of under 10 nM.

For the molecule `COC(C)Cn1ccc2ccc(Sc3ncc(N4CCC5(CC4)Cc4ccccc4[C@H]5N)nc3N)c(Cl)c2c1=O` (stereo partly drawn) [Example 49], the figures for the IC50 in series [3], in series [4] and in series [2] were under 45 nM, under 3 nM and under 10 nM, respectively. In series [5] (male, CD-1 (ICR), brain/plasma), this molecule had a Kp at 24 h of 0.1 to 0.25.

Consider `Cn1ccc2ccc(Sc3ncc(N4CCC5(CC4)Cc4ccccc4[C@H]5N)nc3N)c(Cl)c2c1=O` [Example 47, (S)-7-((3-amino-5-(1-amino-1,3-dihydrospiro[indene-2,4'-piperidin]-1'-yl)pyrazin-2-yl)thio)-8-chloro-2-methylisoquinolin-1(2H)-one], for which the IC50 in series [3] is under 45 nM; in series [4], under 3 nM; in series [2], under 10 nM. In series [5] (male, CD-1 (ICR), brain/plasma), the Kp at 24 h was 0.1 to 0.25.

`Cn1cnc2ccc(Sc3cnc(N4CCC5(CC4)Cc4ccccc4[C@H]5N)cn3)c(Cl)c2c1=O` [Example 7, (S)-6-((5-(1-amino-1,3-dihydrospiro[indene-2,4'-piperidin]-1'-yl)pyrazin-2-yl)thio)-5-chloro-3-methylquinazolin-4(3H)-one]: the IC50 in series [3] is under 45 nM; in series [4] it was under 3 nM; in series [2] it was under 10 nM. The Kp at 24 h in series [5] (brain) lay within 0.1 to 0.25.

Take `Cn1ccc2ccc(Sc3cnc(N4CCC5(CC4)Cc4ccccc4[C@H]5N)cn3)cc2c1=O` [Example 45, (S)-7-((5-(1-amino-1,3-dihydrospiro[indene-2,4'-piperidin]-1'-yl)pyrazin-2-yl)thio)-2-methylisoquinolin-1(2H)-one]: the values for the IC50 in series [3], in series [4] and in series [2] were 45 to 1500 nM, under 3 nM and under 10 nM, respectively. The Kp at 24 h in series [5] (male, CD-1 (ICR), brain/plasma) is 0.1 to 0.25.

Regarding `Cn1ccc2ccc(Sc3cnc(N4CCC5(CC4)Cc4ccccc4[C@H]5N)cn3)c(Cl)c2c1=O` [Example 41, (S)-7-((5-(1-amino-1,3-dihydrospiro[indene-2,4'-piperidin]-1'-yl)pyrazin-2-yl)thio)-8-chloro-2-methylisoquinolin-1(2H)-one], the IC50 is 45 to 1500 nM in series [3], under 3 nM in series [4] and 10 to 50 nM in series [2]. Besides, the Kp at 24 h in series [5] (male, CD-1 (ICR), brain/plasma) was over 0.25.

`CC(C)(O)Cn1cnc2ccc(Sc3cnc(N4CCC5(CC4)Cc4ccccc4[C@H]5N)cn3)c(Cl)c2c1=O` [Example 25, (S)-6-((5-(1-amino-1,3-dihydrospiro[indene-2,4'-piperidin]-1'-yl)pyrazin-2-yl)thio)-5-chloro-3-(2-hydroxy-2-methylpropyl)quinazolin-4(3H)-one]: the IC50 in series [3] was under 45 nM; in series [4], under 3 nM; in series [2], under 10 nM. For the same molecule, the Kp at 24 h in series [5] (male, CD-1 (ICR), brain/plasma) lay within 0.05 to 0.1.

`CC(C)n1ccc2ccc(Sc3ncc(N4CCC5(CC4)Cc4ccccc4[C@H]5N)nc3N)c(Cl)c2c1=O` [Example 48, (S)-7-((3-amino-5-(1-amino-1,3-dihydrospiro[indene-2,4'-piperidin]-1'-yl)pyrazin-2-yl)thio)-8-chloro-2-isopropylisoquinolin-1(2H)-one]: the IC50 in series [3] was 45 to 1500 nM; in series [4], under 3 nM; in series [2], under 10 nM. In series [5] (male, CD-1 (ICR), brain/plasma), this molecule displayed a Kp at 24 h of 0.1 to 0.25.
